Test results from publication PMC8658795 (2021).

System: DNA duplex (DNA, duplex) CAATCGGATCGAATTCGATCCGATTG
Experiment: fluorescent intercalator displacement
Settings: K+ (50 mM KCl, 10 mM KH2PO4); 1 mM K2EDTA, pH 7.4, room temperature; thiazole orange 0.5 μM displaced (Kf 3 × 10^6 M^-1); duplex 0.25 μM

Row | Kb | Compound
1 | (1.24 ± 0.07) × 10^6 M^-1 | NN1C(=O)c2c(c3c4ccccc4n([C@@H]4OC[C@H](O)[C@H](O)[C@H]4O)c3c3[nH]c4ccccc4c23)C1=O
2 | (2.52 ± 0.4) × 10^5 M^-1 | O=C(NN1C(=O)c2c(c3c4ccccc4n([C@H]4OC[C@@H](O)[C@H](O)[C@H]4O)c3c3[nH]c4ccccc4c23)C1=O)c1ccccn1
